Reference: patent publication US20230331674A1 (priority 2020, published 2023)

Columns and labels:
[1] = system: HepG2 cells; experiment: Metabolic activity assay (cytotoxicity) in HepG2 cells; details: 24 h
Method: HepG2 cells (1×10^4 cells/well) were treated for 24 h with the appropriate concentrations of the compounds of interest or the corresponding vehicle (control cells), in triplicates in 96-well plates. The metabolic activities were determined using the CellTiter 96 Aqueous One Solution Cell Proliferation Assay (Promega, WI/USA), according to the manufacturer instructions.

[2] = system: Caco-2 cell monolayers; experiment: in vitro
Method: (§1) They were grown on Transwell® culture inserts with a polycarbonate membrane (diameter, 12 mm; pore size, 0.4 μm). 50,000 cells/filter membranes were used for seeding and the medium was changed every two days. At day 18, transepithelial electrical resistance (TEER) was measured for each filter with Caco-2 cell monolayers. […] The samples were acidified by dilution with the same volume of 0.01 M HCl before fluorescence measurements.
(§2) Ringer buffer with 10 mM d-glucose or 10 mM mannitol on apical and basolateral side of the tissue, respectively, was used as an incubation saline. […] The experiment started by the addition of stock solutions of (±)-N-((1-benzylpiperidin-3-yl)methyl)-N-(2-methoxyethyl)naphthalene-2-sulfonamide hydrochloride and fluorescein in the donor compartment to provide final 100 μM donor concentration of (±)-N-((1-benzylpiperidin-3-yl)methyl)-N-(2-methoxyethyl)naphthalene-2-sulfonamide and 20 μM fluorescein. The stock solutions were added either to the apical or to the basolateral compartment to obtain bidirectional permeability measurements. Six samples were withdrawn in 20 min intervals. Each time 300 μl was taken from the 1500 μL basolateral acceptor compartment and 100 μL from the 500 μL apical acceptor compartment. These volumes were immediately replaced by the appropriate fresh incubation saline. The concentrations of (±)-N-((1-benzylpiperidin-3-yl)methyl)-N-(2-methoxyethyl)naphthalene-2-sulfonamide in the samples were determined by HPLC-UV immediately after the experiment.

[3] = in vitro; details: human, Caco-2
Method: as §1, §2

[4] = system: SH-SY5Y cells; experiment: Cell viability assay (MTS) in SH-SY5Y cells; details: 48 h
Method: Prior to cell treatments, complete medium was replaced with reduced-serum medium (i.e., with 2% fetal bovine serum). (±)-N-((1-benzylpiperidin-3-yl)methyl)-N-(2-methoxyethyl)naphthalene-2-sulfonamide hydrochloride was prepared as a stock solution of 10 mM in DMSO and was used at concentrations of 1 μM to 100 μM.
SH—SY5Y cells were seeded in 96-well plates (2×10^4/well) and assessed in the MTS ([3-(4,5-dimethylthiazol-2-yl)-5-(3-carboxymethoxyphenyl)-2-(4-sulfophenyl)-2H-tetrazolium, inner salt) assay for their response to treatments with (±)-N-((1-benzylpiperidin-3-yl)methyl)-N-(2-methoxyethyl)naphthalene-2-sulfonamide hydrochloride. The cells were treated as described above, and cell viability was assessed after 48 h using the CellTiter 96 Aqueous One Solution Cell Proliferation Assay (Promega, Madison, WI, USA), according to the manufacturer instructions. Absorbance was measured with an automatic microplate reader (Tecan Safire2, Switzerland) at a wavelength of 492 nm. The data are presented as percentages of the control (DMSO).

[5] = target: mAChE (murine acetylcholinesterase) (Mus musculus (Mouse), UniProt P21836); format: biochemical; details: screening at 10 μM; n.i. = no inhibiton
mAChE (murine acetylcholinesterase), sequence (P21836 32-614): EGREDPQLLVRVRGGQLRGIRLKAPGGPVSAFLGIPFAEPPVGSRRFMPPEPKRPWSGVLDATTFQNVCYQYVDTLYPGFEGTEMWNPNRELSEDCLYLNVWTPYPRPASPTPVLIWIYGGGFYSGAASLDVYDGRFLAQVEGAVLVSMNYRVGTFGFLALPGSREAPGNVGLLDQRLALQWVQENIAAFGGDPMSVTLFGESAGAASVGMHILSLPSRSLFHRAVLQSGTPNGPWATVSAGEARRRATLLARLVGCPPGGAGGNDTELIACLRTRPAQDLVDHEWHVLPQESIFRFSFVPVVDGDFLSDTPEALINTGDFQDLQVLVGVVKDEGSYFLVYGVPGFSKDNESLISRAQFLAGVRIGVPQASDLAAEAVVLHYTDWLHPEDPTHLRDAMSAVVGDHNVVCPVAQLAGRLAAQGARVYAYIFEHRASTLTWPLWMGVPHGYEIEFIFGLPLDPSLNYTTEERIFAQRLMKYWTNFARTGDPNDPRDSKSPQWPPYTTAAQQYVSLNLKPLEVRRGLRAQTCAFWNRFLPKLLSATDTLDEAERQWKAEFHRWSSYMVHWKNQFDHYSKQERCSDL
Excerpt: To determine the blank value (b), phosphate-buffered solution replaced the enzyme solution.

[6] = Plasma stability; format: in vitro ADME; details: human, 37° C., 2 h incubation, read-out: In vitro half-life in human plasma
Method: Propoxycaine and propantheline were tested as reference compounds simultaneously in each assay. The incubation was performed in a 37° C. water bath for 2 h. An aliquot of the incubation mixture was transferred to acetonitrile at 0, 0.5, 1, 1.5 and 2 h, respectively. Samples were then mixed and centrifuged. Supernatants were used for HPLC-MS/MS analysis using selected reaction monitoring, and peak areas were recorded for each analyte. The HPLC conditions consisted of a binary LC pump with autosampler, a C18 column (2×20 mm), and gradient elution. The area of precursor compound remaining after each time points relative to the amount remaining at time zero, expressed as percent, is calculated. Subsequently, the half-life (t1/2) was estimated from the slope of the initial linear range of the logarithmic curve of the compound remaining (%) versus time, assuming first order kinetics.

With `COCCN(CC1CCCN(Cc2ccccc2)C1)S(=O)(=O)c1ccc2ccccc2c1` (racemic) [(±)-N-((1-benzylpiperidin-3-yl)methyl)-N-(2-methoxyethyl)naphthalene-2-sulfonamide] the LD50 [1] was 58.67 µM, the “Permeability class according to the biopharmaceutical classification system” value [2] was “high” and the Papp A→B at 120 min, 100 μM [3] was 30 ± 10.7 ×10⁻⁶ cm/s. For the same molecule, the Papp B→A at 120 min, 100 μM [3] was 29.1 ± 2.9 ×10⁻⁶ cm/s, the LD50 [4] was 31.40 µM and the “IC50 + STD (μM) or % inhibition at 10 μM mAChE” value [5] was “n.i”. For the same molecule, the half-life at 1 μM [6] was > 2 h.
